Reference: patent US7888386B2, “3-(phenoxyphenylmethyl)pyrrolidine compounds” (Theravance, Inc., priority 2008, dated 2011)
Where two headings read alike, the source gives them in different places.

Experiments:
hSERT = target: T1, hSERT (Homo sapiens, UniProt P31645); assay: hSERT binding assay (Assay 1)
T1 construct: expressed in transfected cells; host or cells: HEK-293 derived cell line, stably transfected; membrane preparation
Procedure: (§1) Membrane radioligand binding assays were used to measure competitive inhibition of labeled ligand (^3H-citalopram or ^3H-nisoxetine or ^3H-WIN35428) binding to membranes prepared from cells expressing the respective human recombinant transporter (hSERT or hNET or hDAT) in order to determine the pKi values of test compounds at the transporters.
(§2) Recombinant human embryonic kidney (HEK-293) derived cell lines stably transfected with hSERT or hNET, respectively, were grown in DMEM medium supplemented with 10% dialyzed FBS (for hSERT) or FBS (for hNET), 100 μg/ml penicillin, 100 μg/ml streptomycin, 2 mM L-glutamine and 250 μg/ml of the aminoglycoside antibiotic G418, in a 5% CO2 humidified incubator at 37° C. When cultures reached 80% confluence, the cells were washed thoroughly in PBS (without Ca^2+ and Mg^2+) and lifted with 5 mM EDTA in PBS. Cells were pelleted by centrifugation, resuspended in lysis buffer (10 mM Tris-HCl, pH 7.5 containing 1 mM EDTA), homogenized, pelleted by centrifugation, then resuspended in 50 mM Tris-HCl, pH 7.5 and 10% sucrose at 4° C. Protein concentration of the membrane suspension was determined using a Bio-Rad Bradford Protein Assay kit. Membranes were snap frozen and stored at −80° C. Chinese hamster ovary membranes expressing hDAT (CHO-DAT) were purchased from PerkinElmer and stored at −80° C.
(§3) Stock solutions (10 mM in DMSO) of test compound were prepared and serial dilutions made using Dilution Buffer (50 mM Tris-HCl, 120 mM NaCl, 5 mM KCl, pH 7.4, 0.1% BSA, 400 μM ascorbic acid).
(§4) Following a 60 minute incubation at 22° C. (or a period sufficient to reach equilibrium), the membranes were harvested by rapid filtration over a 96-well UniFilter GF/B plate, pretreated with 0.3% polyethyleneimine, and washed 6 times with 300 μl wash buffer (50 mM Tris-HCl, 0.9% NaCl, pH 7.5 at 4° C.). Plates were dried overnight at room temperature, ˜45 μl of MicroScint™-20 (Perkin Elmer) added and bound radioactivity quantitated via liquid scintillation spectroscopy. Competitive inhibition curves and saturation isotherms were analyzed using GraphPad Prism Software package (GraphPad Software, Inc., San Diego, Calif.). IC50 values were generated from concentration response curves using the Sigmoidal Dose Response (variable slope) algorithm in Prism GraphPad.

hNET = target: T2, hNET (Homo sapiens, UniProt P23975); assay: hNET binding assay (Assay 1); conditions: hNET binding, read-out: NET pKi (converted)
T2 construct: expressed in transfected cells; host or cells: HEK-293 derived cell line, stably transfected; membrane preparation
T2 sequence (P23975 whole entry): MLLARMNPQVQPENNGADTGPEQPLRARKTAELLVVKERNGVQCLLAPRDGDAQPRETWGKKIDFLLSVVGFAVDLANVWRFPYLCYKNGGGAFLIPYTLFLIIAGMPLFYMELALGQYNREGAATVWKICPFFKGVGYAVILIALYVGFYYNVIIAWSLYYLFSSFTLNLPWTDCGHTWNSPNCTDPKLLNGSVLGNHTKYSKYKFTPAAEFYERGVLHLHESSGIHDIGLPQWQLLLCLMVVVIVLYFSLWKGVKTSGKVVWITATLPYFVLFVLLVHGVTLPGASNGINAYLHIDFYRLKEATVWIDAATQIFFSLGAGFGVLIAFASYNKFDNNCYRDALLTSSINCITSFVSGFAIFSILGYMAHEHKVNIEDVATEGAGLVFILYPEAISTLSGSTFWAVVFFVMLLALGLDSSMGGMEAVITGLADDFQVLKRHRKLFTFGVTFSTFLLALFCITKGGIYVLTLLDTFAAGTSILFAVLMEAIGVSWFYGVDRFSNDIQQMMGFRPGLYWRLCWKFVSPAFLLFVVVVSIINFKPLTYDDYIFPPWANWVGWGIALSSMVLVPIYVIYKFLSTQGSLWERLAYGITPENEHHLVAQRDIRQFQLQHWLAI
Procedure: as §1, §2, §3, §4

[1] = ratio of SERT Ki to NET Ki (binding)
[2] = ratio of binding Ki at SERT to Ki at NET, the tables list only compounds with a ratio in the range 0.1-100
[3] = the tables list only compounds with NET pKi≧8

T1 sequence (P31645 whole entry): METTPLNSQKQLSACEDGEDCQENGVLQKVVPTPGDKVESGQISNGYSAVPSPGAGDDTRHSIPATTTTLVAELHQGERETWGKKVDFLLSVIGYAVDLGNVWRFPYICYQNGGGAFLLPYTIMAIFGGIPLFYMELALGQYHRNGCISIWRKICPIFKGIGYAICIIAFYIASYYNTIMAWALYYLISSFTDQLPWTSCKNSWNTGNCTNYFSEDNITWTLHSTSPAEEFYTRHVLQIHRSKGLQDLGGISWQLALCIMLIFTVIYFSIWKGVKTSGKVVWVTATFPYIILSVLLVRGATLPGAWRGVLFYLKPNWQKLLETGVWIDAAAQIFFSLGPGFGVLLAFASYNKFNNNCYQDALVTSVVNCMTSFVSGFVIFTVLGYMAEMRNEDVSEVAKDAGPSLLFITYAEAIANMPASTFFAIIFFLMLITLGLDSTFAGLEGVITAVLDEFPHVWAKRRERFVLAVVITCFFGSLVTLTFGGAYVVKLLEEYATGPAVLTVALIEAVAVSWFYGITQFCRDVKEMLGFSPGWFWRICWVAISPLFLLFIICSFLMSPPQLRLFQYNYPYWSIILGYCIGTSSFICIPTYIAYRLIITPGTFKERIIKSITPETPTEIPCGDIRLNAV

Row | SMILES | SERT Ki/NET Ki (hSERT; [1]) | Ki (hNET) [nM] | SERT Ki/NET Ki (hSERT; [2]) | Ki (hNET; [3]) [nM]
1 | Cc1ccc(F)c(OC(c2cc(F)cc(F)c2)C2CCNC2)c1F (centres unmarked) [41-7] | 1.3 | 1 |  | 
2 | Cc1ccc(Cl)c(OC(c2cc(F)cc(F)c2)C2CCNC2)c1F (centres unmarked) [41-8] | 7.9 | 0.398 |  | 
3 | Cc1ccc(Cl)c(O[C@H](c2cc(F)cc(F)c2)[C@@H]2CCNC2)c1F [41-9] | 0.8 | 0.794 |  | 
4 | Fc1cc(F)cc(C(Oc2c(Cl)ccc(Cl)c2Cl)C2CCNC2)c1 (centres unmarked) [41-11] | 0.8 | 0.398 |  | 
5 | Cc1ccc(Cl)c(OC(c2cccc(C#N)c2)C2CCNC2)c1Cl (centres unmarked) [41-14] | 7.9 | 0.631 |  | 
6 | Cc1ccc(Cl)c(OC(c2ccc(C#N)cc2)C2CCNC2)c1Cl (centres unmarked) [41-15] | 0.6 | 1 |  | 
7 | Cc1ccc(Cl)c(O[C@H](c2cccc(CO)c2)[C@H]2CCNC2)c1Cl [41-17] | 5 | 1 |  | 
8 | Cc1ccc(Cl)c(OC(c2ccccc2Cl)C2CCNC2)c1Cl (centres unmarked) [41-18] | 0.4 | 1.58 |  | 
9 | Cc1ccc(Cl)c(OC(c2ccc(Cl)cc2)C2CCNC2)c1Cl (centres unmarked) [41-19] | 0.6 | 1.26 |  | 
10 | Cc1ccc(Cl)c(OC(c2cc(F)cc(Cl)c2)C2CCNC2)c1Cl (centres unmarked) [41-24] | 1 | 1 |  | 
11 | Cc1ccc(Cl)c(O[C@@H](c2cc(F)cc(F)c2)[C@H]2CCNC2)c1Cl [41-27] | 0.8 | 0.794 |  | 
12 | Cc1ccc(F)c(OC(c2cc(F)cc(F)c2)C2CCNC2)c1Cl (centres unmarked) [41-28] | 6.3 | 0.316 |  | 
13 | Cc1ccc(F)c(OC(c2cc(F)cc(F)c2)C2CCNC2)c1Cl (centres unmarked) [41-29] | 0.5 | 0.251 |  | 
14 | Fc1cc(F)cc(C(Oc2c(F)ccc(F)c2Cl)C2CCNC2)c1 (centres unmarked) [41-30] | 32 | 0.2 |  | 
15 | Fc1cc(F)cc([C@@H](Oc2c(F)ccc(F)c2Cl)[C@@H]2CCNC2)c1 [41-31] | 0.6 | 0.251 |  | 
16 | N#Cc1cccc([C@H](Oc2c(F)ccc(F)c2Cl)[C@H]2CCNC2)c1 [41-32] | 40 | 0.398 |  | 

Row | SMILES | SERT Ki/NET Ki (hSERT; [1]) | Ki (hNET) [nM] | SERT Ki/NET Ki (hSERT; [2]) | Ki (hNET; [3]) [nM]
17 | N#Cc1cccc([C@@H](Oc2c(F)ccc(F)c2Cl)[C@@H]2CCNC2)c1 [41-33] | 0.4 | 0.794 |  | 
18 | N#Cc1cccc([C@H](Oc2c(F)ccc(F)c2Cl)[C@@H]2CCNC2)c1 [41-34] | 0.8 | 7.94 |  | 
19 | NC(=O)c1cccc(C(Oc2c(F)ccc(F)c2Cl)C2CCNC2)c1 (centres unmarked) [41-36] | 7.9 | 1 |  | 
20 | Fc1cc(F)c(OC(c2ccccc2)C2CCNC2)cc1F (centres unmarked) [42-1] | 1.6 | 7.94 |  | 
21 | Cc1cc(Cl)c(OC(c2ccccc2)C2CCNC2)cc1F (centres unmarked) [42-4] | 0.5 | 2.51 |  | 
22 | COc1cc(Cl)c(F)cc1OC(c1ccccc1)C1CCNC1 (centres unmarked) [42-8] | 0.4 | 1.26 |  | 
23 | Fc1cc(F)cc(C(Oc2cc(F)c(F)cc2F)C2CCNC2)c1 (centres unmarked) [43-1] | 32 | 2 |  | 
24 | COc1cc(Cl)c(F)cc1OC(c1cc(F)cc(F)c1)C1CCNC1 (centres unmarked) [43-2] | 1.3 | 2 |  | 
25 | CCc1cc(F)cc(F)c1O[C@@H](c1ccccc1)[C@H]1CCNC1 [44-4] |  |  | 0.3 | 0.631
26 | CC(=O)c1cc(F)cc(F)c1O[C@@H](c1ccccc1)[C@H]1CCNC1 [44-6] |  |  | 13 | 1.58
27 | Fc1cc(Cl)cc(F)c1OC(c1ccccc1)C1CCNC1 (centres unmarked) [44-8] |  |  | 0.1 | 3.98
28 | Fc1cc(Cl)cc(F)c1O[C@@H](c1ccccc1)[C@H]1CCNC1 [44-9] |  |  | 0.1 | 2.51
29 | Fc1cc(Cl)c(O[C@@H](c2ccccc2)[C@H]2CCNC2)c(Cl)c1 [44-21] |  |  | 0.5 | 6.31
30 | COC(=O)c1cc(F)cc(F)c1O[C@@H](c1ccccc1)[C@H]1CCNC1 [44-28] |  |  | 2.5 | 1
31 | Fc1cc(F)cc([C@H](Oc2c(F)cc(F)cc2F)[C@H]2CCNC2)c1 [45-1] |  |  | 7.9 | 3.98
